Read-outs that look alike come from different tables or passages of the source.
What was measured:
Arf−/− BCR-ABL^WT LICs [1] = assay: LIC growth inhibition, CellTiter-Glo (CTG) assay, 72 h; type: cell-based, murine; conditions: for effect of cytokine on dasatinib potency: 72-h dasatinib exposure in presence of increasing concentrations of cytokine
Source text: Replication-defective mouse stem cell virus (MSCV) retroviral vectors co-expressing either the wild-type (WT) allele of human p185^BCR-ABL or mutant BCR-ABL alleles p185^T315I or p185^F317L, and either green fluorescent protein (GFP) or luciferase, were packaged into replication-incompetent ecotropic virions. Whole bone marrow cell suspensions from Arf^−/− young adult mice were infected to produce Arf^−/− p185+ pre-B cells. […] Prior to use in any assays, Arf^−/− p185^WT and Arf^−/− p185^T315I pre-B cells (BCR-ABL^WT leukemia initiating cells (LICs) and BCR-ABL^T315I LICs, respectively) were thawed and allowed to recover in BCM10 for 3 days.
The maximum dimethyl sulfoxide (DMSO) concentration tolerated by LICs in culture was determined to be 0.2% (by volume) and was maintained at ≦0.1% (by volume) in all subsequent work. […] Both cell types were plated at multiple cell dilutions (n=3 for each condition, time=0 h) in 6-well plates and serially followed daily for 5 days to evaluate absolute viable cell count, total viability, doubling times, and total population doublings, using the Beckman Coulter cell counter (trypan blue staining) and fluorescence-activated cell sorting (FACS) analysis in parallel. […] FACS cell-cycle analysis confirmed that a population doubling time less than 14 h was sufficient to maintain cells in exponential growth (>50% cells in S-phase).
After a 72 h drug challenge, LIC growth was measured by the 3 cellular readouts: CellTiter-Glo® (CTG) assay (ATP content), MTS (3-(4,5-dimethylthiazol-2-yl)-5-(3-carboxymethoxyphenyl)-2-(4-sulfophenyl)-2H-tetrazolium) assay (viability), and high-throughput flow cytometry (total viability and viable cell counts by DAPI exclusion). Measured assay readouts at various drug concentrations (x-axis) were normalized to DMSO-treated LICs and graphed (+/−sd) on y-axis.

[2] = system: human Ph+ ALL SUPB15 cells; assay: Cell viability, MTS assay, 72 h; type: cell-based
Experimental: Drug delivery to cell suspensions was accomplished with a V & P Scientific (San Diego, Calif.) pin. For murine-human comparisons, human SUP-B15 Ph+ ALL cells (DSMZ cell culture collection, Germany) in McCoy's media containing 20% fetal calf serum and penicillin/streptomycin (Invitrogen, Carlsbad, Calif.), were plated at 12,500 cells in 25 μL per well in black clear-bottom 384-well microtiter plates. Drugs were transferred by pin-transfer. After 72 h incubation at 37° C., 20% (by volume) MTS assay reagent (CellTiter 96 Aqueous One Solution, Promega, Madison, Wis.) was added, microtiter plates were incubated for 75 min at 37° C., and read colorimetrically at 490 nm.

[3] = In vivo toxicity studies of DHA by oral gavage; conditions: repeated single doses of 300 mg/kg, 5 days/week
Experimental: In toxicity studies, DHA was ranged up to 300 mg/kg as a single or split dose for 5 days/week over a six week time period. […] During therapeutic studies, animal weights were monitored daily to ensure no significant body weight reductions.

Arf−/− BCR-ABL^WT LICs [4] = type: in vivo

TSLP: thymic stromal lymphopoietin, IL7-like cytokine
effect of cytokine on dasatinib potency (Arf−/− BCR-ABL^WT LICs [1]): confer some resistance

C[C@H]1[C@H](OC(=O)CCC(=O)O)O[C@@H]2O[C@@]3(C)CC[C@H]4[C@H](C)CC[C@@H]1[C@@]24OO3 [artesunate]
killing of human Ph+ ALL cell line [2]: actively kill

C[C@@H]1CCC2[C@@H](C)[C@@H](O)O[C@@H]3OC4(C)CC[C@@H]1[C@@]23OO4 (some centres unmarked) [DHA, dihydroartemisinin]
toxicity findings [3]: no significant weight loss, lethargy, seizures or deaths
killing of human Ph+ ALL cell line [2]: actively kill
efficacy alone in high-burden leukemia model (Arf−/− BCR-ABL^WT LICs [4]; 200 mg/kg): completely ineffective
efficacy alone in high-burden leukemia model (Arf−/− BCR-ABL^WT LICs [4]; 300 mg/kg): poorly effective
survival benefit, monotherapy (Arf−/− BCR-ABL^WT LICs [4]; IL7+/+ host mice, low-burden 2×10^3 LICs, 100, 200, 300 mg/kg once daily 5 days/week from day 3): dose-dependent survival benefit

TGF-β
effect of cytokine on dasatinib potency (Arf−/− BCR-ABL^WT LICs [1]): enhance dasatinib activity

IL4: recombinant murine hematopoietic cytokine
effect of cytokine on dasatinib potency (Arf−/− BCR-ABL^WT LICs [1]): confer some resistance

C[C@@H]1CC[C@H]2[C@@H](C)C(=O)O[C@@H]3O[C@@]4(C)CC[C@@H]1[C@]32OO4 [artemisinin]
anti-LIC potency (Arf−/− BCR-ABL^WT LICs [1]; BCR-ABL^WT and BCR-ABL^T315I LICs, 72 h, absence or presence of 1 ng/mL murine IL7): lower than that of artesunate or DHA

B1: IL7: recombinant murine cytokine, leukemia-microenvironment host factor (protein, UniProt P10168 26-154, looked up)
Interleukin-7: ECHIKDKEGKAYESVLMISIDELDKMTGTDSNCPNNEPNFFRKHVCDDTKEAAFLNRAARKLKQFLKMNISEEFNVHLLTVSQGTQTLVNCTSKEEKNVKEQKKNDACFLKRLLREIKTCWNKILKGSI
effect of cytokine on dasatinib potency (Arf−/− BCR-ABL^WT LICs [1]): strongest protection against dasatinib
